Tests used:
[1] = tested on: acetylation of histone H3 and H4 and induction of p21waf1,cip1; assay: Acetylation of cellular HDAC 1 substrates and induction of p21waf1,cip1 in A2780 cells; type: cell-based, human; settings: A2780 ovarian carcinoma cells, 24 h, 0-3000 nM, Western blot
Experimental: Total cell lysates were prepared and analysed by SDS-PAGE. Levels of acetylated H3 and H4 histones, total level of H3 proteins and levels p21^waf1,cip1 protein were detected using rabbit polyclonal and mouse monoclonal antibodies, followed by enhanced chemoluminescence (ECL) detection.
Appropriate dilutions of antibodies were incubated for either 1-2 h at room temperature or overnight at 4° C. […] Protein-antibody complexes were then visualized by chemiluminescence (Pierce Chemical Co) or fluorescence (Odyssey) according to the manufacturer's instructions. The experiments were performed three times.

[2] = tested on: acetylation of tubulin and induction of Hsp 70; assay: Acetylation of tubulin and induction of Hsp 70 in A2780 cells; type: cell-based, human; settings: A2780 ovarian carcinoma cells, 24 h, 0-3000 nM, Western blot
Experimental: Total cell lysates were prepared and analysed by SDS-PAGE. […] Hsp 70 protein was detected with an antibody from Stressgen (Cat. nr. SPA-810), followed by ECL detection. Appropriate dilutions of antibodies were incubated for either 1-2 h at room temperature or overnight at 4° C. In order to control for equal loading, blots were stripped and re-probed with mouse monoclonal anti-actin IgM (Ab-1, Oncogene Research Products). […] Protein-antibody complexes were then visualized by chemiluminescence (Pierce Chemical Co) or fluorescence (Odyssey) according to the manufacturer's instructions. The experiments were performed three times.

[3] = tested on: HCT-116 cells; settings: p21waf1,cip1 deficient cells as compared to the parental HCT-116 cells; cited from earlier work

Structure (SMILES) | concentration when induction of acetylation of histone H3 and H4 and induction of p21waf1,cip1 is observed [1] [nM] | concentration when start of induction of acetylation of tubulin and induction of Hsp 70 is observed [2] [nM] | increase in resistance to the HDAC inhibitor [3] [fold]
O=C(NO)c1cnc(N2CCN(S(=O)(=O)c3ccc4ccccc4c3)CC2)nc1 [R306465] | 100 | – | –
Cc1[nH]c2ccccc2c1CCNCc1ccc(/C=C/C(=O)NO)cc1 [LBH-589] | – | 30 | –
O=C(CCCCCCC(=O)Nc1ccccc1)NO [SAHA, suberoylanilide hydroxamic acid] | 3000 | 100 | –
CC(/C=C/C(=O)NO)=C\[C@@H](C)C(=O)c1ccc(N(C)C)cc1 [trichostatin A] | – | – | 6
